Patent US20150119360A1, “COMPOSITION FOR PROMOTING BIFIDOBACTERIA GROWTH” (Kyoto University, priority 2012, published 2015)

Columns and labels:
Assay in all cases: Growth-promoting (prebiotic) effect, OD600 after 24 hr anaerobic culture in GAM bouillon
Type in all cases: cell-based
[1] = tested on: Bifidobacterium longum subsp. Longum 7054 strain; settings: B. longum subsp. Longum 7054, 0.5 (w/v) % oligosaccharide, 37° C.
Experimental: (§1) The microorganisms were purchased from independent administrative agency RIKEN Tsukuba Laboratory BioResource Center (3-1-1 Koyadai, Tsukuba, Ibaraki 305-0074, Japan). As Bifidobacterium longum subsp. longum NCC2705, the strain preserved under GenBank accession number NC004307 was used.
(§2) Glycerol stock of each strain shown in Table 1 was plated in GAM bouillon (manufactured by Nissui Pharmaceutical Co., Ltd.) agar medium, and cultured using a gas pack (“Anaeropack”, manufactured by Mitsubishi Gas Chemical Company, Inc.), under anaerobic conditions at 37° C. for 2 days to renature the test strain. Each strain was inoculated in 5 mL GAM bouillon liquid medium, and precultured in the same manner as above under an anaerobic condition at 37° C. for 18 hr.
(§3) The turbidity (OD600) of each culture medium was measured at wavelength 600 nm on completion of the preculture. The preculture medium was seeded in 1 mL of main test liquid medium such that the OD600 value at the time of start of the culture was 0.010, the cells were cultured under anaerobic conditions at 37° C. for 24 hr in the same manner as above, and OD600 of the culture medium was measured on completion of the culture. The liquid medium for the test was prepared by adding LNT or LNnT to the GAM bouillon liquid medium at a final concentration of 0.5 (w/v) %. In addition, GAM bouillon liquid medium free of both oligosaccharides LNT, LNnT was used as a control. To evaluate the growth-promoting effect (prebiotic effect) of LNT and LNnT, the relative value of the oligosaccharide (LNT or LNnT) addition plot, when the measurement value OD600 of the oligosaccharide non-addition plot (control) was 1, is shown in FIG. 2.

[2] = tested on: Bifidobacterium longum subsp. Longum NCC2705 strain; settings: B. longum subsp. Longum NCC2705, 0.5 (w/v) % oligosaccharide, 37° C.
Experimental: as §1, §2, §3

[3] = tested on: Bifidobacterium longum subsp. Longum 1217 strain; settings: B. longum subsp. Longum 1217, 0.5 (w/v) % oligosaccharide, 37° C.
Experimental: as §1, §2, §3

Measured: prebiotic effect (OD600 of oligosaccharide addition test plot/OD600 of control plot)

4-O-[3-[2-(acetylamino)-2-deoxy-3-O-(β-D-galactopyranosyl)-β-D-glucopyranosyl]-β-D-galactopyranosyl]-D-glucose [LNT]
≥ 2 fold: all assays above
